The results in this text go back to PubChem BioAssay (NCI).

Some test systems named below: A549 NSCLC; CAKI-1 renal; CCRF-CEM leukemia; EKVX NSCLC; HCC-2998 colon; HCT-15 colon; HOP-92 NSCLC; HS 578T breast; IGROV1 ovarian; K-562 leukemia; MDA-MB-231 breast; NCI-H460 lung; NCI/ADR-RES ovarian; SF-539 CNS; SK-OV-3 ovarian; UACC-257 melanoma.
Common to all, as to experiment: DTP human tumour cell line panel, 48 h

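Compound exposure: 48 hours, 5 concentrations, 96-well plates. GI50 = concentration required for 50% inhibition of growth. Definition used: TGI = concentration required for complete inhibition of growth.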 Where a SMILES comes first, the peptide text is derived from it. Bridges are numbered along the chain shown (N, C = ends). The star is where a group is joined. Cbz = O=C(OCc1ccccc1)*

Broadly, the TGI is the concentration at which net growth stops. Consider `COc1cc(CN=c2nc(N(C)C)ss2)cc(OC)c1OC`, for which the total growth inhibition concentration (TGI) in the assay with A549 NSCLC was more than 10 µM; in the assay on CAKI-1 renal it was more than 10 µM; in the assay with CCRF-CEM leukemia, 1.56 µM; with EKVX NSCLC, more than 10 µM; in the assay with HCC-2998 colon, more than 10 µM; in the assay on HCT-15 colon it was more than 10 µM. In addition, the total growth inhibition concentration (TGI) was more than 10 µM in the assay on HOP-92 NSCLC; more than 10 µM in the assay with HS 578T breast; more than 10 µM with IGROV1 ovarian; 5.67 µM in the assay with K-562 leukemia; more than 10 µM with MDA-MB-231 breast; more than 10 µM in the assay with NCI-H460 lung. Also, the TGI with NCI/ADR-RES ovarian, with SF-539 CNS, in the assay with SK-OV-3 ovarian and with UACC-257 melanoma was more than 10 µM in each case.
`COCCN(C(=O)c1ccccc1)C1CCC2(SCCS2)c2[nH]c3ccccc3c21` (stereo not drawn): the TGI is 68.2 µM with A549 NSCLC; more than 100 µM with CAKI-1 renal; more than 100 µM in the assay on CCRF-CEM leukemia; more than 100 µM with EKVX NSCLC; more than 100 µM with HCC-2998 colon; more than 100 µM with HCT-15 colon. Moreover, the TGI with HOP-92 NSCLC is 78 µM; in the assay with HS 578T breast, more than 100 µM; in the assay on IGROV1 ovarian it was more than 100 µM; with K-562 leukemia, more than 100 µM; with MDA-MB-231 breast, more than 100 µM; in the assay on NCI-H460 lung it was more than 100 µM. Moreover, the TGI in the assay on NCI/ADR-RES ovarian, in the assay on SF-539 CNS and in the assay with UACC-257 melanoma was more than 100 µM in each case.
With `COc1cc2c(cc1OS(C)(=O)=O)N=C[C@@H]1CCCN1C2=O`, the TGI in the assay with A549 NSCLC, in the assay on CAKI-1 renal, with CCRF-CEM leukemia, with EKVX NSCLC, in the assay on HCC-2998 colon and with HCT-15 colon was more than 100 µM each time. Besides, the concentration for total growth inhibition (TGI) in the assay on HOP-92 NSCLC, in the assay with HS 578T breast, in the assay with IGROV1 ovarian, in the assay with MDA-MB-231 breast, in the assay on NCI-H460 lung and with SF-539 CNS was more than 100 µM throughout. Also, the concentration for total growth inhibition (TGI) in the assay with SK-OV-3 ovarian and with UACC-257 melanoma was more than 100 µM in each case.
Consider `CN1CCN(Cn2nc(COc3ccccc3Cl)n(/N=C/c3ccc(-c4ccc(Cl)cc4Cl)o3)c2=S)CC1`, for which the total growth inhibition concentration (TGI) with CAKI-1 renal is 50.4 µM; with CCRF-CEM leukemia it was more than 100 µM; in the assay on EKVX NSCLC, more than 100 µM; in the assay with HCC-2998 colon, 33.8 µM; with HCT-15 colon, 74.3 µM; in the assay with HOP-92 NSCLC, 40.6 µM. Also, the TGI with HS 578T breast was more than 100 µM; with IGROV1 ovarian, more than 100 µM; in the assay on K-562 leukemia it was 89.9 µM; with MDA-MB-231 breast, 69.5 µM; in the assay with NCI-H460 lung, 51.6 µM; with NCI/ADR-RES ovarian it was 61.9 µM. Besides, the TGI was 62.6 µM with SF-539 CNS, more than 100 µM in the assay on SK-OV-3 ovarian and more than 100 µM in the assay with UACC-257 melanoma.
Take `CC(NCc1c(O)ccc2c(-c3ccccc3)cc(=O)oc12)C(=O)O` (stereo not drawn): the TGI in the assay with A549 NSCLC, in the assay with CAKI-1 renal, in the assay on CCRF-CEM leukemia, in the assay with EKVX NSCLC, with HCC-2998 colon and in the assay with HCT-15 colon was more than 100 µM in each case. In addition, the concentration for total growth inhibition (TGI) in the assay on HOP-92 NSCLC, with HS 578T breast, with IGROV1 ovarian, in the assay on K-562 leukemia, with MDA-MB-231 breast and in the assay with NCI-H460 lung was more than 100 µM throughout. The concentration for total growth inhibition (TGI) in the assay with NCI/ADR-RES ovarian, in the assay on SF-539 CNS, with SK-OV-3 ovarian and with UACC-257 melanoma was more than 100 µM throughout.
On to `CC(=O)c1ccc(Br)cc1NC1=CC(=O)c2ncccc2C1=O`, for which the concentration for total growth inhibition (TGI) in the assay on A549 NSCLC came to 10.6 µM; in the assay with CAKI-1 renal, 22.3 µM; in the assay with CCRF-CEM leukemia it was 32.2 µM; in the assay on EKVX NSCLC, 19.4 µM; with HCC-2998 colon it was 8.54 µM; in the assay on HCT-15 colon, 10.3 µM. Besides, the total growth inhibition concentration (TGI) in the assay with HOP-92 NSCLC was found to be 26 µM; in the assay with HS 578T breast, 35.6 µM; in the assay with IGROV1 ovarian, 12.4 µM; in the assay on K-562 leukemia, 10.1 µM; with MDA-MB-231 breast, 10.8 µM; in the assay with NCI/ADR-RES ovarian, 14.9 µM. The figures for the TGI in the assay on SF-539 CNS, in the assay on SK-OV-3 ovarian and in the assay on UACC-257 melanoma were 6.96 µM, 29.1 µM and 4.94 µM, respectively.
For `C=CCOC(=O)Cn1cnc2c(N)ncnc21`, the TGI with A549 NSCLC, in the assay on CAKI-1 renal, in the assay on CCRF-CEM leukemia, in the assay with EKVX NSCLC, in the assay with HCC-2998 colon and in the assay on HCT-15 colon was more than 100 µM in each case. The TGI in the assay with HS 578T breast, in the assay with IGROV1 ovarian, in the assay on K-562 leukemia, with MDA-MB-231 breast, with NCI-H460 lung and with NCI/ADR-RES ovarian was more than 100 µM throughout. Further, the total growth inhibition concentration (TGI) with SF-539 CNS, with SK-OV-3 ovarian and in the assay with UACC-257 melanoma was more than 100 µM in each case.
In general, GI50 refers to the concentration at which growth is held to half of that of the control. For the compound `COC(=O)c1cc2ccc(O)c(O)c2cn1`, the TGI is 63.1 µM in the assay on A549 NSCLC; 25.7 µM in the assay with CAKI-1 renal; more than 100 µM in the assay on CCRF-CEM leukemia; 38.4 µM in the assay on EKVX NSCLC; more than 100 µM with HCC-2998 colon; 40.4 µM with HCT-15 colon. For the same compound, the TGI was 26.3 µM in the assay with HOP-92 NSCLC; 33.2 µM in the assay with IGROV1 ovarian; 8.16 µM with K-562 leukemia; 25.2 µM in the assay on MDA-MB-231 breast; 37.4 µM with NCI-H460 lung; 46.1 µM in the assay with NCI/ADR-RES ovarian. For the same compound, the values for the TGI with SF-539 CNS, in the assay on SK-OV-3 ovarian and with UACC-257 melanoma were 33.5 µM, 92.3 µM and 29.6 µM, respectively. Besides, the GI50 with CCRF-CEM leukemia was 4.62 µM; in the assay with HCC-2998 colon, more than 100 µM; with NCI/ADR-RES ovarian, 20.4 µM.
As to `CC(C)(C)C(=O)/C=C(\OB(F)F)C(C)(C)C`, the TGI in the assay on A549 NSCLC, in the assay on CAKI-1 renal, with CCRF-CEM leukemia, in the assay on EKVX NSCLC, in the assay on HCC-2998 colon and in the assay with HCT-15 colon was more than 100 µM throughout. Further, the TGI with HOP-92 NSCLC, in the assay on HS 578T breast, in the assay on IGROV1 ovarian, in the assay on K-562 leukemia, with MDA-MB-231 breast and in the assay on NCI-H460 lung was more than 100 µM in each case. For the same compound, the TGI in the assay on NCI/ADR-RES ovarian, in the assay with SF-539 CNS, in the assay on SK-OV-3 ovarian and in the assay with UACC-257 melanoma was more than 100 µM throughout.
Regarding `Cc1ccc(S(=O)(=O)NNC(=O)Nc2cccc(C(F)(F)F)c2)cc1`, the concentration for total growth inhibition (TGI) with A549 NSCLC, in the assay with CAKI-1 renal, in the assay on CCRF-CEM leukemia, in the assay with EKVX NSCLC, in the assay on HCC-2998 colon and in the assay with HCT-15 colon was more than 100 µM each time. In addition, the TGI with HOP-92 NSCLC, in the assay on HS 578T breast, with IGROV1 ovarian, with K-562 leukemia, with MDA-MB-231 breast and with NCI-H460 lung was more than 100 µM each time. Also, the TGI in the assay on NCI/ADR-RES ovarian, in the assay on SF-539 CNS, in the assay on SK-OV-3 ovarian and in the assay on UACC-257 melanoma was more than 100 µM in each case.
Regarding `CC(C)[Si](OC12CCC(CC1O)CC2CO)(C(C)C)C(C)C` (stereo not drawn), the TGI with A549 NSCLC was 22.1 µM; with CAKI-1 renal, 39.3 µM; with CCRF-CEM leukemia, 31.6 µM; in the assay on HCT-15 colon, 27.1 µM; in the assay with HOP-92 NSCLC, 29 µM; with K-562 leukemia, more than 100 µM. The total growth inhibition concentration (TGI) was determined as 45.6 µM in the assay with MDA-MB-231 breast; 25.2 µM in the assay with NCI-H460 lung; 28.3 µM with NCI/ADR-RES ovarian; 38 µM with SF-539 CNS; 27.5 µM in the assay with SK-OV-3 ovarian; 26.6 µM in the assay on UACC-257 melanoma.
Consider `CNC(=O)C1CCCCNC(=O)CCC(NC(=O)OCc2ccccc2)C(=O)N1` (stereo not drawn) (Cbz-Glu-Lys-NHMe; lactam 1-2; configuration not given here), for which the concentration for total growth inhibition (TGI) with A549 NSCLC, in the assay with CAKI-1 renal, in the assay on CCRF-CEM leukemia, with EKVX NSCLC, in the assay on HCT-15 colon and with HOP-92 NSCLC was more than 100 µM throughout. Further, the total growth inhibition concentration (TGI) with HS 578T breast, in the assay on IGROV1 ovarian, with K-562 leukemia, with MDA-MB-231 breast, in the assay on NCI-H460 lung and with NCI/ADR-RES ovarian was more than 100 µM each time. In addition, the concentration for total growth inhibition (TGI) with SF-539 CNS, with SK-OV-3 ovarian and in the assay with UACC-257 melanoma was more than 100 µM each time.
As to `COC(=NC(C)C)NC(C)C`, the total growth inhibition concentration (TGI) in the assay on A549 NSCLC, in the assay with CCRF-CEM leukemia, in the assay with EKVX NSCLC, in the assay with HCC-2998 colon, with HCT-15 colon and with HOP-92 NSCLC was more than 100 µM throughout. Further, the concentration for total growth inhibition (TGI) with HS 578T breast, with IGROV1 ovarian, in the assay with K-562 leukemia, in the assay on MDA-MB-231 breast, in the assay on NCI-H460 lung and with NCI/ADR-RES ovarian was more than 100 µM in each case. Also, the TGI in the assay with SF-539 CNS and in the assay with SK-OV-3 ovarian was more than 100 µM in each case.
With `COc1ccc(/C=C/C(=O)c2cc(OC)cc(OC)c2)cc1`, the TGI in the assay on A549 NSCLC was 6.96 µM; in the assay on CAKI-1 renal, 12.9 µM; in the assay with CCRF-CEM leukemia it was 10.1 µM; in the assay with EKVX NSCLC, 20 µM; in the assay on HCC-2998 colon it was 16.3 µM; in the assay with HCT-15 colon, 7.9 µM. Moreover, the TGI was 60.4 µM in the assay with HOP-92 NSCLC; 15.1 µM in the assay with HS 578T breast; 25.7 µM in the assay with IGROV1 ovarian; more than 100 µM with K-562 leukemia; more than 28.3 µM with MDA-MB-231 breast; 14.4 µM with NCI-H460 lung. For the same compound, the concentration for total growth inhibition (TGI) with NCI/ADR-RES ovarian is 9.02 µM; in the assay with SF-539 CNS, 7.93 µM; with SK-OV-3 ovarian, 27.5 µM; in the assay on UACC-257 melanoma it was 26.9 µM.
